Measurements from the supplement of paper PMC10307832.

Tests used:
Assay in all cases: relative viability (nuclei count vs DMSO), 5 days (fraction); higher = more cells survive
[1] = compound: CN(c1ncccc1CNc1nc(Nc2ccc3c(c2)CC(=O)N3)ncc1C(F)(F)F)S(C)(=O)=O
Procedure, shortened: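 Lung cancer cell lines were seeded into 1536-well plates, kept overnight at 37 °C and pinned with five library-drug doses (not always all listed) spaced by √10. After 5 days, nuclei were Hoechst-stained, imaged at 4× and counted with MetaXpress. Viability is treated-well nuclei over vehicle-well nuclei, taken as a median across plates. Plates needed control CV below 25% and at least one doubling.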

[2] = compound: CN(c1ncccc1CNc1nc(Nc2ccc3c(c2)CC(=O)N3)ncc1C(F)(F)F)S(C)(=O)=O + O=C(c1cc(Cc2n[nH]c(=O)c3ccccc23)ccc1F)N1CCN(C(=O)C2CC2)CC1 [Olaparib] (partner 8 µM)
Procedure, shortened: (§1)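 Lung cancer cell lines in 1536-well plates got either a single drug or a fixed anchor-drug dose together with five library-drug doses (not always all listed) in √10 steps, by pin tool, on the day after seeding. Nuclei were counted after 5 days, and relative viability is the treated-to-vehicle ratio of nuclei counts. Values are medians of duplicate plates.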

[3] = compound: CN(c1ncccc1CNc1nc(Nc2ccc3c(c2)CC(=O)N3)ncc1C(F)(F)F)S(C)(=O)=O + N=C(N)NC(=N)NCCc1ccccc1 [Phenformin] (partner 250 µM)
Procedure, shortened: as §1

[4] = compound: CN(c1ncccc1CNc1nc(Nc2ccc3c(c2)CC(=O)N3)ncc1C(F)(F)F)S(C)(=O)=O + CC(=O)Nc1cccc(-n2c(=O)n(C3CC3)c(=O)c3c(Nc4ccc(I)cc4F)n(C)c(=O)c(C)c32)c1 [Trametinib] (partner 0.02 µM)
Procedure, shortened: as §1

Row | Cell Line | relative viability ([1]; 0.01 µM) | relative viability ([1]; 0.03162 µM) | relative viability ([1]; 0.1 µM) | relative viability ([1]; 0.3162 µM) | relative viability ([1]; 1 µM) | relative viability ([2]; first compound 0.01 µM) | relative viability ([2]; first compound 0.03162 µM) | relative viability ([2]; first compound 0.1 µM) | relative viability ([2]; first compound 0.3162 µM) | relative viability ([2]; first compound 1 µM) | relative viability ([3]; first compound 0.01 µM) | relative viability ([3]; first compound 0.03162 µM) | relative viability ([3]; first compound 0.1 µM) | relative viability ([3]; first compound 0.3162 µM) | relative viability ([3]; first compound 1 µM) | relative viability ([4]; first compound 0.01 µM) | relative viability ([4]; first compound 0.03162 µM) | relative viability ([4]; first compound 0.1 µM) | relative viability ([4]; first compound 0.3162 µM) | relative viability ([4]; first compound 1 µM)
1 | NCI-H1437 | 0.994 | 1.02 | 0.946 | 0.936 | 0.877 | 0.63 | 0.633 | 0.59 | 0.583 | 0.466 | 0.384 | 0.333 | 0.284 | 0.298 | 0.266 | 0.529 | 0.575 | 0.415 | 0.356 | 0.395
2 | NCI-H2085 | 0.989 | 1.04 | 0.947 | 0.948 | 0.9 | 0.79 | 0.81 | 0.71 | 0.759 | 0.696 | 0.743 | 0.781 | 0.644 | 0.775 | 0.627 | 0.564 | 0.461 | 0.551 | 0.619 | 0.471
3 | H3255 | 0.974 | 1.07 | 0.95 | 0.906 | 0.972 | 0.623 | 0.611 | 0.554 | 0.547 | 0.445 | 0.34 | 0.339 | 0.316 | 0.384 | 0.342 | 0.688 | 0.675 | 0.549 | 0.601 | 0.576
4 | NCI-H650 | 1.03 | 1 | 0.825 | 0.905 | 0.802 | 0.372 | 0.376 | 0.389 | 0.367 | 0.358 | 0.492 | 0.464 | 0.396 | 0.393 | 0.441 | 1.02 | 1.01 | 0.994 | 1.02 | 0.88
5 | LCLC-103H | 0.964 | 0.966 | 0.877 | 0.919 | 0.958 | 0.724 | 0.742 | 0.78 | 0.693 | 0.669 | 0.337 | 0.298 | 0.277 | 0.348 | 0.318 | 0.674 | 0.687 | 0.675 | 0.704 | 0.673
6 | LOU-NH91 | 1.04 | 0.976 | 0.925 | 1.02 | 1.02 | 0.888 | 0.92 | 0.883 | 0.972 | 0.858 | 0.704 | 0.776 | 0.726 | 0.716 | 0.792 | 0.802 | 0.793 | 0.75 | 0.819 | 0.787
7 | NCI-H1650 | 0.924 | 0.961 | 0.947 | 0.904 | 0.886 | 0.753 | 0.783 | 0.784 | 0.672 | 0.675 | 0.481 | 0.53 | 0.519 | 0.436 | 0.409 | 0.647 | 0.587 | 0.582 | 0.57 | 0.483
8 | NCI-H3122 | 0.994 | 1.06 | 1.01 | 1.03 | 0.953 | 0.658 | 0.65 | 0.604 | 0.568 | 0.574 | 0.389 | 0.373 | 0.36 | 0.317 | 0.354 | 0.244 | 0.257 | 0.214 | 0.22 | 0.201
9 | PC-3 [JPC-3] | 0.998 | 1.05 | 0.981 | 1.03 | 0.943 | 1.13 | – | 1.05 | 1.08 | 1.04 | 0.522 | 0.488 | 0.505 | 0.471 | 0.481 | 0.669 | – | 0.712 | 0.696 | 0.554
10 | NCI-H1651 | 1.02 | 1.04 | 1 | 0.982 | 0.963 | 0.187 | 0.172 | 0.204 | 0.183 | 0.197 | 0.348 | 0.365 | 0.359 | 0.365 | 0.358 | 0.89 | 0.837 | 0.816 | 0.826 | 0.818
11 | NCI-H2087 | 1.01 | 1.21 | 0.974 | 1.05 | 1.06 | 0.634 | 0.639 | 0.614 | 0.464 | 0.668 | 0.522 | 0.518 | 0.424 | 0.475 | 0.454 | 0.137 | 0.233 | 0.199 | 0.196 | 0.224
